According to the supplement of paper PMC10307832:

Tests used:
Experiment in all cases: relative viability (nuclei count vs DMSO), 5 days (fraction); higher = more cells survive
[1] = tested on: NCI-H2023
Method in brief: (§1)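 Lung cancer cell lines were seeded in 1536-well plates and dosed by pin tool the next day, with either a single drug or a fixed anchor-drug dose combined with five library-drug doses (not always all listed) spaced in √10 steps. Five days later, one step fixed the cells and stained their nuclei (final 0.05% Triton X-100, 1% formaldehyde, 1 ug/ml Hoechst), and nuclei were counted on 4× images. Relative viability is the nuclei count in treated wells divided by the count in vehicle wells, and each value is the median of duplicate plates.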

[2] = tested on: NCI-H358
Method in brief: as §1

[3] = tested on: NCI-H1975
Method in brief: as §1

[4] = tested on: COR-L 105
Method in brief: as §1

[5] = tested on: NCI-H1944
Method in brief: as §1

[6] = tested on: LOU-NH91
Method in brief: as §1

[7] = tested on: NCI-H1993
Method in brief: as §1

[8] = tested on: LXF-289
Method in brief: as §1

[9] = tested on: NCI-H1915
Method in brief: as §1

[10] = tested on: HCC-44
Method in brief: as §1

[11] = tested on: LCLC-103H
Method in brief: as §1

[12] = tested on: SW 900
Method in brief: as §1

[13] = tested on: NCI-H1793
Method in brief: as §1

[14] = tested on: NCI-H2170
Method in brief: as §1

[15] = tested on: NCI-H520
Method in brief: as §1

[16] = tested on: NCI-H1792
Method in brief: as §1

[17] = tested on: HCC-827
Method in brief: as §1

[18] = tested on: A-427
Method in brief: as §1

[19] = tested on: H3255
Method in brief: as §1

[20] = tested on: SK-MES-1
Method in brief: as §1

[21] = tested on: NCI-H522
Method in brief: as §1

[22] = tested on: SW 1573
Method in brief: as §1

[23] = tested on: NCI-H2087
Method in brief: as §1

Work on `CCNC(=O)c1noc(-c2cc(C(C)C)c(O)cc2O)c1-c1ccc(CN2CCOCC2)cc1` [Luminespib] + N=C(N)NC(=N)NCCc1ccccc1 [Phenformin] (partner 250 µM) yielded a relative viability ([1]; first compound 0.002 µM) of 0.39, a relative viability ([1]; first compound 0.006325 µM) of 0.376 and a relative viability ([1]; first compound 0.02 µM) of 0.287. The relative viability ([1]; first compound 0.06325 µM) was 0.0664, the relative viability ([1]; first compound 0.2 µM) was 0.0658 and the relative viability ([2]; first compound 0.002 µM) was 0.348. It also gave a relative viability ([2]; first compound 0.006325 µM) of 0.356, a relative viability ([2]; first compound 0.02 µM) of 0.152 and a relative viability ([2]; first compound 0.06325 µM) of 0.0546. The relative viability ([2]; first compound 0.2 µM) was 0.0585, the relative viability ([3]; first compound 0.002 µM) was 0.401 and the relative viability ([3]; first compound 0.006325 µM) was 0.37. The relative viability ([3]; first compound 0.02 µM) was 0.169, the relative viability ([3]; first compound 0.06325 µM) was 0.118 and the relative viability ([3]; first compound 0.2 µM) was 0.118. It also gave a relative viability ([4]; first compound 0.002 µM) of 0.474, a relative viability ([4]; first compound 0.006325 µM) of 0.402 and a relative viability ([4]; first compound 0.02 µM) of 0.337. For the same molecule, the relative viability ([4]; first compound 0.06325 µM) was 0.154, the relative viability ([4]; first compound 0.2 µM) was 0.19 and the relative viability ([5]; first compound 0.002 µM) was 0.219. It also gave a relative viability ([5]; first compound 0.006325 µM) of 0.189, a relative viability ([5]; first compound 0.02 µM) of 0.205 and a relative viability ([5]; first compound 0.06325 µM) of 0.112. For the same molecule, the relative viability ([5]; first compound 0.2 µM) was 0.111, the relative viability ([6]; first compound 0.002 µM) was 0.741 and the relative viability ([6]; first compound 0.006325 µM) was 0.716. The relative viability ([6]; first compound 0.02 µM) was 0.525, the relative viability ([6]; first compound 0.06325 µM) was 0.287 and the relative viability ([6]; first compound 0.2 µM) was 0.322. For the same molecule, the relative viability ([7]; first compound 0.002 µM) was 0.46, the relative viability ([7]; first compound 0.006325 µM) was 0.474 and the relative viability ([7]; first compound 0.02 µM) was 0.476. For the same molecule, the relative viability ([7]; first compound 0.06325 µM) was 0.394, the relative viability ([7]; first compound 0.2 µM) was 0.36 and the relative viability ([8]; first compound 0.002 µM) was 0.429. For the same molecule, the relative viability ([8]; first compound 0.006325 µM) was 0.482, the relative viability ([8]; first compound 0.02 µM) was 0.593 and the relative viability ([8]; first compound 0.06325 µM) was 0.163. It also gave a relative viability ([8]; first compound 0.2 µM) of 0.0721, a relative viability ([9]; first compound 0.002 µM) of 0.361 and a relative viability ([9]; first compound 0.006325 µM) of 0.352. It also gave a relative viability ([9]; first compound 0.02 µM) of 0.407, a relative viability ([9]; first compound 0.06325 µM) of 0.293 and a relative viability ([9]; first compound 0.2 µM) of 0.0788. For the same molecule, the relative viability ([10]; first compound 0.002 µM) was 0.245, the relative viability ([10]; first compound 0.006325 µM) was 0.163 and the relative viability ([10]; first compound 0.02 µM) was 0.119. For the same molecule, the relative viability ([10]; first compound 0.06325 µM) was 0.0759, the relative viability ([10]; first compound 0.2 µM) was 0.11 and the relative viability ([11]; first compound 0.002 µM) was 0.322. For the same molecule, the relative viability ([11]; first compound 0.006325 µM) was 0.361, the relative viability ([11]; first compound 0.02 µM) was 0.351 and the relative viability ([11]; first compound 0.06325 µM) was 0.353. It also gave a relative viability ([11]; first compound 0.2 µM) of 0.188, a relative viability ([12]; first compound 0.002 µM) of 0.625 and a relative viability ([12]; first compound 0.006325 µM) of 0.489. It also gave a relative viability ([12]; first compound 0.02 µM) of 0.344, a relative viability ([12]; first compound 0.06325 µM) of 0.0721 and a relative viability ([12]; first compound 0.2 µM) of 0.124. For the same molecule, the relative viability ([13]; first compound 0.002 µM) was 0.367, the relative viability ([13]; first compound 0.006325 µM) was 0.373 and the relative viability ([13]; first compound 0.02 µM) was 0.151. It also gave a relative viability ([13]; first compound 0.06325 µM) of 0.102, a relative viability ([13]; first compound 0.2 µM) of 0.138 and a relative viability ([14]; first compound 0.002 µM) of 0.405. It also gave a relative viability ([14]; first compound 0.006325 µM) of 0.398, a relative viability ([14]; first compound 0.02 µM) of 0.376 and a relative viability ([14]; first compound 0.06325 µM) of 0.236. The relative viability ([14]; first compound 0.2 µM) was 0.158, the relative viability ([15]; first compound 0.002 µM) was 0.634 and the relative viability ([15]; first compound 0.006325 µM) was 0.537. For the same molecule, the relative viability ([15]; first compound 0.02 µM) was 0.248, the relative viability ([15]; first compound 0.06325 µM) was 0.138 and the relative viability ([15]; first compound 0.2 µM) was 0.191. For the same molecule, the relative viability ([16]; first compound 0.002 µM) was 0.265, the relative viability ([16]; first compound 0.006325 µM) was 0.263 and the relative viability ([16]; first compound 0.02 µM) was 0.101. For the same molecule, the relative viability ([16]; first compound 0.06325 µM) was 0.0593, the relative viability ([16]; first compound 0.2 µM) was 0.077 and the relative viability ([17]; first compound 0.002 µM) was 0.385. For the same molecule, the relative viability ([17]; first compound 0.006325 µM) was 0.384, the relative viability ([17]; first compound 0.02 µM) was 0.369 and the relative viability ([17]; first compound 0.06325 µM) was 0.281. For the same molecule, the relative viability ([17]; first compound 0.2 µM) was 0.141, the relative viability ([18]; first compound 0.002 µM) was 0.354 and the relative viability ([18]; first compound 0.006325 µM) was 0.377. The relative viability ([18]; first compound 0.02 µM) was 0.275, the relative viability ([18]; first compound 0.06325 µM) was 0.101 and the relative viability ([18]; first compound 0.2 µM) was 0.128. For the same molecule, the relative viability ([19]; first compound 0.002 µM) was 0.328, the relative viability ([19]; first compound 0.006325 µM) was 0.347 and the relative viability ([19]; first compound 0.06325 µM) was 0.319. The relative viability ([19]; first compound 0.2 µM) was 0.187, the relative viability ([20]; first compound 0.002 µM) was 0.642 and the relative viability ([20]; first compound 0.006325 µM) was 0.623. It also gave a relative viability ([20]; first compound 0.02 µM) of 0.702, a relative viability ([20]; first compound 0.06325 µM) of 0.189 and a relative viability ([20]; first compound 0.2 µM) of 0.193. The relative viability ([21]; first compound 0.002 µM) was 0.707, the relative viability ([21]; first compound 0.006325 µM) was 0.657 and the relative viability ([21]; first compound 0.02 µM) was 0.601. For the same molecule, the relative viability ([21]; first compound 0.06325 µM) was 0.546, the relative viability ([21]; first compound 0.2 µM) was 0.362 and the relative viability ([22]; first compound 0.002 µM) was 0.39. It also gave a relative viability ([22]; first compound 0.006325 µM) of 0.339, a relative viability ([22]; first compound 0.02 µM) of 0.262 and a relative viability ([22]; first compound 0.06325 µM) of 0.0845. The relative viability ([22]; first compound 0.2 µM) was 0.0847, the relative viability ([23]; first compound 0.002 µM) was 0.493 and the relative viability ([23]; first compound 0.006325 µM) was 0.362. For the same molecule, the relative viability ([23]; first compound 0.02 µM) was 0.267, the relative viability ([23]; first compound 0.06325 µM) was 0.136 and the relative viability ([23]; first compound 0.2 µM) was 0.115.
